Laboratory results from patent publication US3947584A, “Novel indolyl alkyl amines, method of producing same, and their use as anorectic agents” (Siegfried Aktiengesellschaft, priority 1972, dated 1976).

What was measured:
[1] = test system: Mouse / Rat; assay: Therapeutic index (LD 50 mouse, oral / ED 50 rat, oral); assay type: in vivo
Excerpt: (§1) The first column gives the respective two alkyl groups which are fixed in the α-position to the otherwise unsubstituted tryptamines.

[2] = test system: Rat; assay: Anorexia, single oral application in rat (ED 50); assay type: in vivo; conditions: dissolved in equivalent quantities of HCl
Excerpt: as §1

[3] = Toxicity, single oral application in mouse (LD 50); conditions: in vivo, dissolved in equivalent quantities of HCl
Excerpt: as §1

[4] = Solubility; conditions: in usual alcohols and in water; hydrochloride

SMILES | Therapeutic Index (LD 50 / ED 50) [1] | ED50 [2] [mg/kg] | LD50 [3] [mg/kg] | solubility [4]
CCCC(N)(CCC)Cc1c[nH]c2ccccc12 [Propyl, propyl, 3-(2'-propyl-2'-aminopentyl)-indole] | < 18 | > 50 | 900 | 
CCC(C)(N)Cc1c[nH]c2ccccc12 (stereo not shown) [Methyl, ethyl, 3-(2'-amino-2'-methylbutyl)-indole] | 47 | 15 | 700 | 
CC(C)(N)Cc1c[nH]c2ccccc12 [Methyl, methyl, α,α-dimethyl tryptamine, reference compound] | 9 | 36 | 320 | 
CCC(C)(N)Cc1c[nH]c2ccccc12 (stereo not shown) [Example 3, 3-(2'-amino-2'-methylbutyl)-indole] |  |  |  | soluble very satisfactorily in usual alcohols and in water
CCCC(C)(N)Cc1c[nH]c2ccccc12 (stereo not shown) [Methyl, propyl, 3-(2'-methyl-2'-aminopentyl)-indole] | approx. 11 | ~50 | 530 | 
CCC(N)(CC)Cc1c[nH]c2ccccc12 [Ethyl, ethyl, 3-(2'-ethyl-2'-aminobutyl)-indole] | < 12 | > 50 | 620 | 
